Assay results taken from patent US12410207B2, “Galactoside inhibitor of galectins” (GALECTO BIOTECH AB, priority 2019, dated 2025).

How the values were obtained:
galectins = details: cited from earlier work
Galectin-1 = Galectin-1 (Homo sapiens, UniProt P09382); assay: Fluorescence anisotropy assay, inhibition of galectin / fluorescein tagged saccharide probe interaction; details: compound as inhibitor of probe binding
Procedure: (§1) The affinity of Example 1-45 for galectins were determined by a fluorescence anisotropy assay where the compound was used as an inhibitor of the interaction between galectin and a fluorescein tagged saccharide probe as described Sörme, P., Kahl-Knutsson, B., Huflejt, M., Nilsson, U. J., and Leffler H. (2004) Fluorescence polarization as an analytical tool to evaluate galectin-ligand interactions. Anal. Biochem. 334: 36-47, (Sorme et al., 2004) and Monovalent interactions of Galectin-1 By Salomonsson, Emma; Larumbe, Amaia; Tejler, Johan; Tullberg, Erik; Rydberg, Hanna; Sundin, Anders; Khabut, Areej; Frejd, Torbjorn; Lobsanov, Yuri D.; Rini, James M.; et al, From Biochemistry (2010), 49(44), 9518-9532, (Salomonsson et al., 2010).

Galectin-3 = Galectin-3 (Homo sapiens, UniProt P17931); assay: as above; details: compound as inhibitor of probe binding
Sequence of Galectin-3 (P17931 whole entry, species assumed): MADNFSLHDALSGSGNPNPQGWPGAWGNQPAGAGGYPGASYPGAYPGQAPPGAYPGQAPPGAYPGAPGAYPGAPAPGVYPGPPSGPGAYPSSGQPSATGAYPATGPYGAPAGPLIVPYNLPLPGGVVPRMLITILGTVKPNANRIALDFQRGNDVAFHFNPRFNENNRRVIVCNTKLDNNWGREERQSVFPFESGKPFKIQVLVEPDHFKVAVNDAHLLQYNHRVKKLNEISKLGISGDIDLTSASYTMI
Procedure: as §1

MDCK-MDR1 = MDCK-MDR1 in vitro cell model of passage over Blood Brain Barrier; assay type: in vitro ADME; details: MDCK-MDR1, result in words
MDR1 = assay: as above; assay type: in vitro ADME; details: dog
[1] = In vivo mouse pharmacokinetic experiment (plasma and brain)
Procedure: FIG. 1 compares the mean plasma levels after IV and PO administration
FIG. 2 compares the mean brain tissue concertation after IV and PO administration
The ratio between exposure of example 35 in brain compared to plasma is determined to AUCbrain/AUCplasma=0.19 after oral administration. (AUC=area under the curve)

[2] = MDCK-MDR1, first column, headed A > B
[3] = MDCK-MDR1, second column, also headed A > B

Sequence of Galectin-1 (P09382 whole entry, species assumed): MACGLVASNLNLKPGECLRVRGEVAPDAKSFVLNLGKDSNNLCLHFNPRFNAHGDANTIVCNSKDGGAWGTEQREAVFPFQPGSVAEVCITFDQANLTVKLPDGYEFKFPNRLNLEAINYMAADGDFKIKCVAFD

| SMILES | Kd (Galectin-1) [µM] | Kd (Galectin-3) [µM] | efflux and uptake in in vitro cell model of BBB passage (MDCK-MDR1) | Papp (MDR1; [2]) [×10⁻⁶ cm/s] | Papp (MDR1; [3]) [×10⁻⁶ cm/s] | systemic bioavailability ([1]; IV 1 mg/kg and PO 10 mg/kg, FIG. 1) | exposure in brain ([1]; IV 1 mg/kg and PO 10 mg/kg, FIG. 2) | Kp ([1]; brain (relative to plasma), after oral administration (PO 10 mg/kg), read-out: AUCbrain/AUCplasma) | affinity, times lower than lactose (galectins; relative to lactose) | Kd (galectins; reviewed by Leffler 2001, Leffler et al. 2004, read-out: Kd, all galectins) [µM] |
| --- | --- | --- | --- | --- | --- | --- | --- | --- | --- | --- |
| O=C[C@H](O)[C@@H](O)[C@@H](O)[C@H](O)CO [D-galactose] | – | – | – | – | – | – | – | – | 50-100 times | – |
| N#Cc1ncc(Cl)cc1S[C@H]1OC(CO)[C@H](O)C(n2cc(-c3cc(F)c(F)c(F)c3)cn2)C1O (stereo partly drawn) [Example 12, 5-Chloro-2-cyanopyridin-3-yl 3-deoxy-3-[4-(3,4,5-trifluorophenyl)-1H-1,2-pyrazol-1-yl]-1-thio-α-D-galactopyranoside] | 8.2 | 0.021 | low or no efflux and high uptake | 12 | 51 | – | – | – | – | – |
| N#Cc1ncc(Br)cc1S[C@H]1OC(CO)[C@H](O)C(n2cc(-c3cc(F)c(F)c(F)c3)cn2)C1O (stereo partly drawn) [Example 15, 5-Bromo-2-cyanopyridin-3-yl 3-deoxy-3-[4-(3,4,5-trifluorophenyl)-1H-1,2-pyrazol-1-yl]-1-thio-α-D-galactopyranoside] | 4.8 | 0.011 | low or no efflux and high uptake | 12 | 53 | – | – | – | – | – |
| OC[C@H]1O[C@@H](O[C@H]2[C@H](O)[C@@H](O)C(O)O[C@@H]2CO)[C@H](O)[C@@H](O)[C@H]1O (stereo partly shown) [lactose] | – | – | – | – | – | – | – | – | – | 500 to 1000 |

Further lines, with some results ahead:

| Kd (Galectin-1) [µM] | Kd (Galectin-3) [µM] | efflux and uptake in in vitro cell model of BBB passage (MDCK-MDR1) | Papp (MDR1; [2]) [×10⁻⁶ cm/s] | Papp (MDR1; [3]) [×10⁻⁶ cm/s] | systemic bioavailability ([1]; IV 1 mg/kg and PO 10 mg/kg, FIG. 1) | exposure in brain ([1]; IV 1 mg/kg and PO 10 mg/kg, FIG. 2) | Kp ([1]; brain (relative to plasma), after oral administration (PO 10 mg/kg), read-out: AUCbrain/AUCplasma) | SMILES | affinity, times lower than lactose (galectins; relative to lactose) | Kd (galectins; reviewed by Leffler 2001, Leffler et al. 2004, read-out: Kd, all galectins) [µM] |
| --- | --- | --- | --- | --- | --- | --- | --- | --- | --- | --- |
| 19.7 | 0.029 | low or no efflux and high uptake | 28 | 49 | – | – | – | OCC1O[C@H](Sc2cncc(Cl)c2)C(O)C(n2cc(-c3ccc(Cl)c(F)c3)cn2)[C@H]1O (stereo partly drawn) [Example 17, 5-Chloropyridin-3-yl 3-[4-(4-chloro-3-fluorophenyl)-1H-1,2-pyrazol-1-yl]-3-deoxy-1-thio-α-D-galactopyranoside] | – | – |
| 6.7 | 0.017 | low or no efflux and high uptake | 30 | 33 | – | – | – | COC1C(n2cc(-c3cc(F)c(F)c(F)c3)cn2)[C@@H](O)C(CO)O[C@@H]1Sc1cncc(Cl)c1 (stereo partly drawn) [Example 32, 5-Chloropyridin-3-yl 3-deoxy-3-[4-(3,4,5-trifluorophenyl)-1H-1,2-pyrazol-1-yl]-2-O-methyl-1-thio-α-D-galactopyranoside] | – | – |
| 3.6 | 0.022 | low or no efflux and high uptake | 34 | 23 | – | – | – | COC1C(n2cc(-c3cc(F)c(F)c(F)c3)cn2)[C@@H](O)C(CO)O[C@@H]1Sc1cncc(Br)c1 (stereo partly drawn) [Example 33, 5-Bromopyridin-3-yl 3-deoxy-3-[4-(3,4,5-trifluorophenyl)-1H-1,2-pyrazol-1-yl]-2-O-methyl-1-thio-α-D-galactopyranoside] | – | – |
| 16.5 | 0.023 | low or no efflux and high uptake | 35 | 37 | – | – | – | C#Cc1cncc(S[C@H]2OC(CO)[C@H](O)C(n3cc(-c4cc(F)c(F)c(F)c4)cn3)C2OC)c1 (stereo partly drawn) [Example 34, 5-Ethynylpyridin-3-yl 3-deoxy-3-[4-(3,4,5-trifluorophenyl)-1H-1,2-pyrazol-1-yl]-2-O-methyl-1-thio-α-D-galactopyranoside] | – | – |
| 3.1 | 0.014 | low or no efflux and high uptake | 23 | 35 | excellent systemic bioavailability | good exposure in brain | 0.19 | COC1C(n2cc(-c3cc(F)c(F)c(F)c3)cn2)[C@@H](O)C(CO)O[C@@H]1Sc1cc(Cl)cnc1C#N (stereo partly drawn) [Example 35, 5-Chloro-2-cyanopyridin-3-yl 3-deoxy-3-[4-(3,4,5-trifluorophenyl)-1H-1,2-pyrazol-1-yl]-2-O-methyl-1-thio-α-D-galactopyranoside] | – | – |
